How the values were obtained:
Type in all cases: functional
Conditions in all cases: read-out: IZ
Helicobacter pylori [1] = test: Antibacterial activity against metronidazole-sensitive Helicobacter pylori at 32 ug/disk after 3 to 5 days by filter paper disk diffusion method
Helicobacter pylori [2] = test: Antibacterial activity against metronidazole-resistant Helicobacter pylori at 32 ug/disk after 3 to 5 days by filter paper disk diffusion method
Helicobacter pylori [3] = test: Antibacterial activity against metronidazole-sensitive Helicobacter pylori at 8 ug/disk after 3 to 5 days by filter paper disk diffusion method
Helicobacter pylori [4] = test: Antibacterial activity against metronidazole-sensitive Helicobacter pylori at 16 ug/disk after 3 to 5 days by filter paper disk diffusion method
Helicobacter pylori [5] = test: Antibacterial activity against metronidazole-resistant Helicobacter pylori at 16 ug/disk after 3 to 5 days by filter paper disk diffusion method
Helicobacter pylori [6] = test: Antibacterial activity against metronidazole-resistant Helicobacter pylori at 8 ug/disk after 3 to 5 days by filter paper disk diffusion method
Helicobacter pylori [7] = test: Antibacterial activity against Helicobacter pylori clinical isolates at 4 ug/disk after 3 to 5 days by filter paper disk diffusion method
Helicobacter pylori [8] = test: Antibacterial activity against Helicobacter pylori clinical isolates at 0.5 ug/disk after 3 to 5 days by filter paper disk diffusion method
Helicobacter pylori [9] = test: Antibacterial activity against Helicobacter pylori clinical isolates at 8 ug/disk after 3 to 5 days by filter paper disk diffusion method
Helicobacter pylori [10] = test: Antibacterial activity against Helicobacter pylori clinical isolates at 16 ug/disk after 3 to 5 days by filter paper disk diffusion method
Helicobacter pylori [11] = test: Antibacterial activity against Helicobacter pylori clinical isolates at 2 ug/disk after 3 to 5 days by filter paper disk diffusion method
Helicobacter pylori [12] = test: Antibacterial activity against Helicobacter pylori clinical isolates at 1 ug/disk after 3 to 5 days by filter paper disk diffusion method
Helicobacter pylori [13] = test: Antibacterial activity against Helicobacter pylori clinical isolates at 32 ug/disk after 3 to 5 days by filter paper disk diffusion method

SMILES	zone of inhibition at 32 µg/disc (Helicobacter pylori [1]) [mm]	zone of inhibition at 32 µg/disc (Helicobacter pylori [2]) [mm]	zone of inhibition at 8 µg/disc (Helicobacter pylori [3]) [mm]	zone of inhibition at 16 µg/disc (Helicobacter pylori [4]) [mm]	zone of inhibition at 16 µg/disc (Helicobacter pylori [5]) [mm]	zone of inhibition at 8 µg/disc (Helicobacter pylori [6]) [mm]	zone of inhibition at 4 µg/disc (Helicobacter pylori [7]) [mm]	zone of inhibition at 0.5 µg/disc (Helicobacter pylori [8]) [mm]	zone of inhibition at 8 µg/disc (Helicobacter pylori [9]) [mm]	zone of inhibition at 16 µg/disc (Helicobacter pylori [10]) [mm]	zone of inhibition at 2 µg/disc (Helicobacter pylori [11]) [mm]	zone of inhibition at 1 µg/disc (Helicobacter pylori [12]) [mm]	zone of inhibition at 32 µg/disc (Helicobacter pylori [13]) [mm]
O=[N+]([O-])c1ccc(-c2nnc(N3CCCCC3)s2)s1	6	6	6	6	6	6	–	–	–	–	–	–	–
O=[N+]([O-])c1ccc(-c2nnc(N3CCOCC3)s2)s1	15	6	6	6	6	6	–	–	–	–	–	–	–
O=[N+]([O-])c1ccc(-c2nnc(N3CCOCC3)s2)o1	42	48	33	36	33	30	28.4	10.8	32.1	36.6	23.7	17.5	40
O=[N+]([O-])c1ccc(-c2nnc(N3CCCCC3)s2)o1	35	34	28	32	32	27	27.4	13.7	30.5	33.5	24.9	19	36.5
Cn1c([N+](=O)[O-])cnc1-c1nnc(N2CCOCC2)s1	32	33	25	31	31	26	22.5	13.7	27.6	30.6	21.3	19.4	33.5
Cn1c([N+](=O)[O-])cnc1-c1nnc(N2CC[S+]([O-])CC2)s1	25	21	6	19	15	6	–	–	–	–	–	–	–
O=[N+]([O-])c1ccc(-c2nnc(N3CCS(=O)(=O)CC3)s2)s1	16	6	6	6	6	6	–	–	–	–	–	–	–
Cn1c([N+](=O)[O-])cnc1-c1nnc(N2CCSCC2)s1	34	30	27	31	27	24	23.7	9.9	27.4	30.4	20	15.6	32.4
O=[N+]([O-])c1ccc(-c2nnc(N3CCSCC3)s2)o1	41	42	32	35	37	26	27.7	10.8	30.1	32.9	23.4	18.3	36.9
O=[N+]([O-])c1ccc(-c2nnc(N3CCSCC3)s2)s1	22	21	16	18	19	16	–	–	–	–	–	–	–
O=[N+]([O-])c1ccc(-c2nnc(N3CC[S+]([O-])CC3)s2)s1	46	41	34	39	35	32	28.1	13.7	34.4	39.9	23.6	18.5	45
O=[N+]([O-])c1ccc(-c2nnc(N3CCS(=O)(=O)CC3)s2)o1	> 50	46	43	50	43	41	30.7	16.6	36.1	40.7	25.5	21	44.3
O=[N+]([O-])c1ccc(-c2nnc(N3CC[S+]([O-])CC3)s2)o1	46	43	35	41	40	35	25.4	7.3	31	37.1	19.9	13.4	41.9
Cn1c([N+](=O)[O-])cnc1-c1nnc(N2CCCCC2)s1	6	6	6	6	6	6	–	–	–	–	–	–	–
Cn1c([N+](=O)[O-])cnc1-c1nnc(N2CCS(=O)(=O)CC2)s1	45	40	32	40	36	27	25.9	10.6	30.2	33.9	19.3	14.9	37.3
CC1(C)S[C@@H]2[C@H](NC(=O)[C@H](N)c3ccc(O)cc3)C(=O)N2[C@H]1C(=O)O [AMOXICILLIN]	–	–	–	–	–	–	–	–	–	–	–	24.5	–
Cc1ncc([N+](=O)[O-])n1CCO [METRONIDAZOLE]	–	–	18	–	–	11	–	–	16.3	–	–	–	–
